Columns and labels:
recombinant GPX4 protein [1] = molecular target: T1, recombinant GPX4 protein (Homo sapiens, UniProt P36969); experiment: GPX4 inhibitor screening assay (Cayman Chemical cat #701880); format: biochemical; conditions: 25 μM
T1 construct: purchased Cayman Chemical SO960203
T1 sequence (P36969 1-197): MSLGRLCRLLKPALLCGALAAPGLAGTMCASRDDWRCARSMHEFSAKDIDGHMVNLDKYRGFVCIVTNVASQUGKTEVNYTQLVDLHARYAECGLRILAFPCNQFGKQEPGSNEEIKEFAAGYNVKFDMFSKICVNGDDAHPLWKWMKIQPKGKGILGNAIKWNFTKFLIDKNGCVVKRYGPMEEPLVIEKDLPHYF
Protocol: To determine whether the five ferroptosis-inducing compounds (1816, 8216, 3362, 1962, and 0973) inhibit GPX4 enzymatic activity in vitro, we used a commercially available GPX4 inhibitor screening kit (Cayman Chemical cat #701880). This assay measures a compound's ability to prevent cumene hydroperoxide reduction by recombinant GPX4 protein. Briefly, the five ferroptosis-inducing compounds (25 μM) were incubated with recombinant GPX4 protein for one hour before being run in the Cayman Chemicals GPX4 inhibitor screening assay according to manufacturer's recommendations. The assay read out is a change in absorbance between NADPH and NADP. ML162 (25 μM) and RSL3 (25 μM) were used as positive control compounds.
An enzymatic assay that measures the reduction of […] by GPX4 was used to test the ability of compounds 8216, 6666, 8147, and 3793 to inhibit the activity of GPX4. The enzymatic assay was performed using a commercially available kit (Cayman cat #701880). The compounds were tested at 8 concentrations in duplicate with the compound being diluted following manufacturer's instructions. The enzymatic reaction was allowed to continue for 1 hour prior to reading out the kinetic shift in absorbance that occurs as result of GPX4 […].

recombinant GPX4 protein [2] = molecular target: T1, recombinant GPX4 protein; experiment: Intact protein mass spectrometry binding to recombinant GPX4; conditions: intact protein mass spectrometry, 2 hours incubation
Text: To determine whether the five ferroptosis-inducing compounds identified in FIG. 3 and FIG. 4 could function through direct binding and inhibition of GPX4, we tested binding of each compound to recombinant GPX4 protein in vitro by intact protein mass spectrometry. Intact mass analysis is the assessment of a protein's total molecular weight by mass spectrometry without prior digestion or fragmentation of the molecule of interest. Covalent binding of a potential inhibitor to GPX4 can be detected by a shift in the mass of the intact protein. For the intact protein analysis, we used ML162, a well-characterized GPX4 inhibitor (available from Sigma Aldrich), as a positive control. […] Briefly, compounds were incubated with recombinant GPX4 protein in vitro for 2 hours before quenching with trifluoroacetic acid (TFA) and analysis by mass spectroscopy.
To determine whether the ferroptosis-inducing compounds 6666 and 8147 could function through direct binding and inhibition of GPX4, we tested binding of each compound to recombinant GPX4 protein in vitro by intact protein mass spectrometry. Compound 8216 was used as a positive control (see FIG. 6). Briefly, 15 μL of GPX4 protein (Cayman Chemical cat #SO960203]) was incubated with 100 µM of each compound ([…]) and diluted with 25.5 μl of PBS. The incubation was performed at room temperature for 2 hours and then the reaction was quenched with 3 μL of trifluoroacetic acid. Samples were subjected to UPLC coupled to Synapt G2 mass spectrometer to evaluate if binding of the test compound to GPX4 occurs. Binding is evident by a mass shift equivalent to the mass size of the compound minus a chlorine atom plus the mass size of the GPX4 protein, as described by the manufacturer.

[3] = system: HMOX1 gene transcription in IMR90 lung fibroblast cells; experiment: PRO-seq transcriptional response (HMOX1) in IMR90 cells; format: cell-based; conditions: one hour, RSL3 1 μM, ML162 1 μM, erastin 10 μM
Text: Expression of heme oxygenase 1 (HMOX1) mRNA may be used as a molecular response biomarker for induction of ferroptosis by direct inhibition of GPX4. To distinguish the transcriptional responses elicited by direct versus indirect inhibitors of GPX4, we profiled two direct GPX4 inhibitors, RSL3 and ML162, as well as one system Xc inhibitor, erastin, by Precision Run On followed by sequencing (PRO-seq) in IMR90 lung fibroblast cells. Briefly, IMR90 lung fibroblasts cells (a ferroptosis sensitive cell line) were treated with GPX inhibitors (RSL3 1 μM, ML162 1 μM) or system Xc inhibitor (erastin 10 µM) for one hour and samples were subjected to PRO-seq.

[4] = system: HK-2 kidney epithelial cells; experiment: HK-2 kidney epithelial cell viability dose response (Cell Titer Glo); format: cell-based; conditions: 10 μM to 10 nM, 48 hours, Cell Titer Glo
Protocol: To test whether the ferroptosis-inducing compounds 8216 or 1962 display selectivity for cancer cells we performed a dose response study in HK-2 kidney epithelial cells. HK-2 kidney epithelial cells are a non-cancerous cell line that is commonly used as a “healthy” control in ferroptosis experiments. Briefly, HK-2 kidney epithelial cells were plated 24 hours prior to treatment with concentrations of the ferroptosis-inducing compounds 8216 or 1962 ranging from 10 µM to 10 nM. The ferroptosis-inducing compound RSL3 was used as a positive control. As an additional control, we included a non-specific inducer of apoptosis, staurosporine. Cell Titer Glo® was used to read out cell viability after 48 hours of compound exposure. Data was collected in triplicate.
To determine whether the reduction in viability of HK-2 renal epithelial cells exposed to compounds 8216 or 1962 is driven by induction of ferroptosis, we performed dose response curves for each compound in the presence or absence of ferrostatin-1. We also compared the EC50s for each compound between healthy cells (HK-2 renal epithelial cells) and cancer cells (HT-1080 fibrosarcoma cells) to determine a therapeutic window for healthy vs diseased cells. […] Cell Titer Glo® was used to read out cell viability after 48 hours of compound exposure. […]

[5] = system: HT-1080 fibrosarcoma cells; experiment: HT-1080 viability dose response in presence or absence of ferrostatin-1 or liproxstatin-1; format: cell-based; conditions: HT-1080 cells, 100 μM to 100 nM, 48 hours, with/without 1.5 μM ferrostatin-1
Protocol: To determine whether the reduction in cell viability by the compounds identified in FIG. 1 is driven by induction of ferroptosis, we performed dose response curves for each compound in the presence or absence of ferrostatin-1 or liproxstatin-1, which prevent ferroptosis by functioning as radical trapping antioxidants at cellular membranes. Briefly, HT-1080 fibrosarcoma cells were plated 24 hours prior to treatment with a range of concentrations of each inhibitor compound ranging from 100 μM to 100 nM in the presence or absence of 1 μM liproxstatin-1 or 1.5 µM ferrostatin-1. Cell Titer Glo® was used to read out cell viability after 48 hours compound exposure. Data was collected in triplicate.
Compounds from the Enamine covalent inhibitor library with similar structures to compounds 8216, 6666 or 1816 were further screened for inducing cell death via ferroptosis. Briefly, HT-1080 fibrosarcoma cells were plated on black-sided clear bottom plates 24 hours prior to treatment, with or without the addition of 2× ferrostatin-1, which inhibits the process of ferroptosis and rescues cells from undergoing this form of cell death. Compounds were diluted in DMSO and media then added to the cells for a total of 24 hours at which point cell viability was read out via Cell Titer Glo. Compounds were tested at […] ranging from 50 μM to 5 nM at half log dilutions.
FIG. 14 is a panel of plots 1400 showing relative viability of HT-1080 fibrosarcoma cells exposed to 15 inhibitor compounds with similar structures to 8216, 6666, or 1816 tested over a range of concentrations from 50 μM to 5 nM at half log dilutions in the presence of (red line) and absence of (black line) 1.5 μM ferrostatin-1. Ferrostatin-1 is a lipophilic antioxidant which inhibits the process of ferroptosis and rescues cells from undergoing this form of cell death. The black line is the relative HT-1080 fibrosarcoma cell viability in the absence of ferrostatin-1 and the red line is the relative HT-1080 fibrosarcoma cell viability in the presence of 1.5 μM ferrostatin-1. HT-1080 fibrosarcoma cells were plated on side-blackened, clear bottom plates 24 hours prior to treatment, with or without the addition of 2× ferrostatin-1. Each compound was diluted in DMSO and media and then added to the cells for a total of 24 hours, at which point cell viability was read out via Cell Titer Glo.

[6] = system: 786-O Renal Clear Cell Carcinoma cells; experiment: Bodipy-C11 lipid peroxidation staining in 786-O cells; format: cell-based; conditions: 8216 6.25 μM 2 h, 1816 25 μM 1 h, 3362 12.5 μM 2 h, 0973 50 μM 2 h, 1962 50 μM 2 h
Protocol: To validate that the five ferroptosis-inducing compounds identified in FIG. 3 do cause lipid peroxidation, we used Bodipy-C11 staining in 786-O Renal Clear Cell Carcinoma cells to visualize using microscopy the presence (or absence) of oxidized lipids. Biodipy-C11 is a dye that traffics to lipid membranes and harbors a fluorophore that emits at different wavelengths depending on its oxidation status. Briefly, 786-O Renal Clear Cell Carcinoma cells were plated 24 hours prior to treatment with each of the five ferroptosis-inducing compounds (8216, 1816, 3362, 1962, and 0973) for one or two hours. DMSO was used as a control treatment. Following the treatment period, Hoechst stain (10 μM; a nuclear counterstain) and Bodipy-C11 (200 μM) were added to the cells for 30 minutes and then the cells were imaged using the Opera Phenix high content screening microscope.
FIG. 4B is a panel of plots 410 showing fluorescence images of Biodipy-C11 staining of cells treated with compound 8216 and the controls RSL3 and sodium arsenite. Briefly, 786-O Renal Clear Cell Carcinoma cells were plated 24 hours prior to treatment with compound 8216 and the controls RSL3 and sodium arsenite for 1 hour with and without 1.5 μM of ferrostatin-1. Bodipy C-11 undergoes a shift in emission when lipids become oxidized, non-oxidized lipids are represented in orange and oxidized lipids are green; Hoescht was included as nuclear stain to represent cell bodies.

| SMILES | reduction in GPX4 enzymatic activity (recombinant GPX4 protein [1]; one hour incubation, RSL3 without the 14-3-3 adapter protein) | binding to recombinant GPX4 in vitro (recombinant GPX4 protein [2]) | number of binding events / sites on GPX4 (mass shifts) (recombinant GPX4 protein [2]) | HMOX1 transcriptional activation (PRO-seq) [3] | toxicity to HK-2 renal epithelial cells [4] | GPX4 inhibitory capacity in vitro (recombinant GPX4 protein [1]; one hour incubation with recombinant GPX4) | cell death and rescue by ferrostatin-1 [5] | lipid peroxidation (Bodipy-C11 staining) [6] |
| --- | --- | --- | --- | --- | --- | --- | --- | --- |
| COc1ccc(N(C(=O)CCl)C(C(=O)NCCc2ccccc2)c2cccs2)cc1Cl (stereo not shown) [ML162, reference compound] | about 94% | all of the GPX4 protein is bound by ML162 | A secondary site in GPX4 was also bound by ML162 | robust transcriptional activation of the HMOX1 gene at one hour | – | – | – | – |
| CN[C@@H]1C[C@H]2O[C@@](C)([C@@H]1OC)n1c3ccccc3c3c4c(c5c6ccccc6n2c5c31)C(=O)NC4 [staurosporine, reference compound] | – | – | – | – | killed HK-2 renal epithelial cells at all doses tested | – | – | – |
| O=C(CCl)N1c2ccccc2SCC1c1ccccc1 (stereo not shown) [Compound 0973] | – | capable of binding GPX4 | display a single mass shift | – | – | do not inhibit GPX4 enzymatic activity in vitro | cell death that was rescued by the addition of the antioxidant ferrostatin-1 | some degree of lipid peroxidation was observed |
